Here are results for eight molecules from patent publication US20240245694A1, “Tricyclic Compounds and their Uses” (Novartis AG, priority 2022, published 2024).

The structures appear in SMILES notation.

One experiment deals with DLD1-WRN-KO cells. Description: Proliferation assay DLD1-WRN-KO (CellTiterGlo, 96 hours), off-target effects. The format is cell-based. As to conditions: Homo sapiens. An outline of the steps: (§1)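 Cells in RPMI-1640/10% FCS were seeded overnight (SW48 2'000, DLD1-WRN-KO 1'500 cells/well), then exposed to eight 3-fold compound dilutions at 0.1% DMSO. ATP luminescence relative to a day-0 plate gives % growth (0% stasis, −100% complete kill). GI50 is the geometric mean of ≥2 independent replicates.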
For orientation: ATP-based viability assays read luminescence as a measure of living cells.

The next experiment deals with SW48 cells. Kind of experiment: Proliferation assay SW48 (CellTiterGlo, 96 hours). Format: cell-based. The settings on record: Homo sapiens. An outline of the steps:
as §1

Experiment [1] concerns the target WRN helicase (core helicase motif aa N517-P1238) (Homo sapiens (Human), UniProt Q14191). Description: WRN ATPase assay (ADP-Glo), DNA dependent ATP hydrolysis. Format: biochemical. The settings on record: 3 hours pre-incubation, 300 micromolar ATP, FLAP26 ssDNA; geometric means of at least 2 determinations. An outline of the steps: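 Uses the WRN core helicase (aa N517-P1238) with single-strand 45-mer FLAP26 DNA in Tris pH 7.5, MgCl2, NaCl, BSA and pluronic buffer. Compound was pre-incubated 3 h with enzyme and ATP; reaction then run with 10 nM WRN, 0.2 nM FLAP26 and 300 µM ATP for 30 min at room temperature. ADP quantified by ADP-Glo luminescence; IC50 from duplicate 4-parameter fits, geometric mean of ≥2 runs.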

Chain of WRN helicase (core helicase motif aa N517-P1238) (Q14191 517-1238): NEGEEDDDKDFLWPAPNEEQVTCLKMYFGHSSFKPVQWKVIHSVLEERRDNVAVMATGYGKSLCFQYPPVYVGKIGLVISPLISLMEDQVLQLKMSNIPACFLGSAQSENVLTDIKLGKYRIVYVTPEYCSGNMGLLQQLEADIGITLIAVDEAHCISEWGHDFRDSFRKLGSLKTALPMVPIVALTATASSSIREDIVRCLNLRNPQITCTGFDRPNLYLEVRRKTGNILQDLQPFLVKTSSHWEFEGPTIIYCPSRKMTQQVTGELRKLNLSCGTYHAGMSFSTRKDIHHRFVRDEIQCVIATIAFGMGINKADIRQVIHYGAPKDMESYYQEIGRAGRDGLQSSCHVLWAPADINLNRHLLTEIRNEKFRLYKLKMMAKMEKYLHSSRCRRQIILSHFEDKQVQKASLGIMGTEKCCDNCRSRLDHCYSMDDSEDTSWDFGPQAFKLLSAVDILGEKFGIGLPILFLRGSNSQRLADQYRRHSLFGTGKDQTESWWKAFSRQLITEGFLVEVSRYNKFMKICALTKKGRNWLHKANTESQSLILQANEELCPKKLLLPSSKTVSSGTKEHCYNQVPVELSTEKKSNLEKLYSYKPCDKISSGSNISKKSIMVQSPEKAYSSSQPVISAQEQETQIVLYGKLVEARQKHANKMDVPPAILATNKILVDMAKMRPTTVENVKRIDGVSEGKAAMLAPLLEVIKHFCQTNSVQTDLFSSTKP

By GI50 is commonly meant the concentration at which growth is held to half of that of the control. As a reminder, the IC50 is the point on the concentration scale where inhibition reaches its midpoint. Low values mean inhibition by little substance, high ones a need for much substance. As for `Cc1cc(C(F)(F)F)ccc1NC(=O)[C@H]1CCc2c(N3CCN(C(=O)c4ncccc4O)CC3)c(=O)n3nc(C4=CCOCC4)nc3n21` [Example 20A, (R)-2-(3,6-dihydro-2H-pyran-4-yl)-6-(4-(3-hydroxypicolinoyl)piperazin-1-yl)-N-(2-methyl-4-(trifluoromethyl)phenyl)-5-oxo-5,7,8,9-tetrahydropyrrolo[1,2-c][1,2,4]triazolo[1,5-a]pyrimidine-9-carboxamide], the GI50 in the experiment on DLD1-WRN-KO cells was greater than 10 µM; in the experiment with SW48 cells it was 0.3 µM. In addition, in experiment [1], the IC50 came out at 0.09 µM.

As for `Cc1cc(F)c(O)c(C(=O)N2CCN(c3c4n(c5nc(N6CCOCC6)nn5c3=O)[C@@H](C(=O)Nc3ccc(C(F)(F)F)cc3Cl)C[C@H]4C)CC2)n1` [Example 3A, (7R,9R)—N-(2-chloro-4-(trifluoromethyl)phenyl)-6-(4-(4-fluoro-3-hydroxy-6-methylpicolinoyl)piperazin-1-yl)-7-methyl-2-morpholino-5-oxo-5,7,8,9-tetrahydropyrrolo[1,2-c][1,2,4]triazolo[1,5-a]pyrimidine-9-carboxamide], the GI50 in the experiment on DLD1-WRN-KO cells is greater than 10 µM; in the experiment on SW48 cells, 0.04 µM. Also, the IC50 in experiment [1] worked out at 0.03 µM.

With `Cc1ncnc(C(=O)N2CCN(c3c4n(c5nc(C6=CCOCC6)nn5c3=O)[C@@H](C(=O)Nc3ccc(C(F)(F)F)cc3Cl)C[C@@H]4C)C[C@H]2C)c1O` [Example 18D, (7S,9R)—N-(2-chloro-4-(trifluoromethyl)phenyl)-2-(3,6-dihydro-2H-pyran-4-yl)-6-((R)-4-(5-hydroxy-6-methylpyrimidine-4-carbonyl)-3-methylpiperazin-1-yl)-7-methyl-5-oxo-5,7,8,9-tetrahydropyrrolo[1,2-c][1,2,4]triazolo[1,5-a]pyrimidine-9-carboxamide], the GI50 with DLD1-WRN-KO cells was greater than 10 µM; in the experiment on SW48 cells, 0.5 µM. In addition, the IC50 in experiment [1] was determined as 0.1 µM.

As to `C[C@H]1C[C@@H](C(=O)Nc2ccc(C(F)(F)F)cc2Cl)n2c1c(N1CCN(C(=O)c3ncc4c(c3O)OCC4)CC1)c(=O)n1nc(C3=CCOCC3)nc21` [Example 5B, (7S,9S)—N-(2-chloro-4-(trifluoromethyl)phenyl)-2-(3,6-dihydro-2H-pyran-4-yl)-6-(4-(7-hydroxy-2,3-dihydrofuro[3,2-c]pyridine-6-carbonyl)piperazin-1-yl)-7-methyl-5-oxo-5,7,8,9-tetrahydropyrrolo[1,2-c][1,2,4]triazolo[1,5-a]pyrimidine-9-carboxamide], the GI50 is greater than 10 µM in the experiment with DLD1-WRN-KO cells and 5 µM with SW48 cells. Inhibition in experiment [1] was half-maximal at 6 µM (IC50).

On to `Cc1cc(C(F)(F)F)ccc1NC(=O)[C@H]1C[C@H](C)c2c(N3CCN(C(=O)c4ncccc4O)CC3)c(=O)n3nc(C4=CCOCC4)nc3n21` [Example 15C, (7S,9R)-2-(3,6-dihydro-2H-pyran-4-yl)-6-(4-(3-hydroxypicolinoyl)piperazin-1-yl)-7-methyl-N-(2-methyl-4-(trifluoromethyl)phenyl)-5-oxo-5,7,8,9-tetrahydropyrrolo[1,2-c][1,2,4]triazolo[1,5-a]pyrimidine-9-carboxamide], for which the GI50 with DLD1-WRN-KO cells is greater than 10 µM; in the experiment on SW48 cells, 0.4 µM. In experiment [1], this molecule had an IC50 of 0.1 µM.

As for `Cc1ncnc(C(=O)N2CCN(c3c4n(c5nc(C6=CCOCC6)nn5c3=O)[C@H](C(=O)Nc3ccc(C(F)(F)F)cc3Cl)C[C@H]4C)C[C@H]2C)c1O` [Example 18C, (7R,9S)—N-(2-chloro-4-(trifluoromethyl)phenyl)-2-(3,6-dihydro-2H-pyran-4-yl)-6-((R)-4-(5-hydroxy-6-methylpyrimidine-4-carbonyl)-3-methylpiperazin-1-yl)-7-methyl-5-oxo-5,7,8,9-tetrahydropyrrolo[1,2-c][1,2,4]triazolo[1,5-a]pyrimidine-9-carboxamide], the 50% growth inhibitory concentration (GI50) in the experiment with DLD1-WRN-KO cells and with SW48 cells was greater than 10 µM each time. The IC50 in experiment [1] was greater than 10 µM.

As for `C[C@@H]1C[C@H](C(=O)Nc2ccc(C(F)(F)F)cc2Cl)n2c1c(N1CCN(C(=O)c3ccnc(F)c3O)CC1)c(=O)n1nc(C3=CCOCC3)nc21` [Example 12, (7R,9R)—N-(2-chloro-4-(trifluoromethyl)phenyl)-2-(3,6-dihydro-2H-pyran-4-yl)-6-(4-(2-fluoro-3-hydroxyisonicotinoyl)piperazin-1-yl)-7-methyl-5-oxo-5,7,8,9-tetrahydropyrrolo[1,2-c][1,2,4]triazolo[1,5-a]pyrimidine-9-carboxamide], the results for the GI50 in the experiment on DLD1-WRN-KO cells and with SW48 cells were greater than 10 µM and 0.3 µM, respectively. In addition, half-maximal inhibition in experiment [1] (IC50) was put at 0.03 µM.

On to `Cc1ncnc(C(=O)N2CCN(c3c4n(c5nc(C6=CCOCC6)nn5c3=O)[C@H](C(=O)Nc3ccc(C(F)(F)F)cc3Cl)C[C@@H]4C)C[C@H]2C)c1O` [Example 18B, (7S,9S)—N-(2-chloro-4-(trifluoromethyl)phenyl)-2-(3,6-dihydro-2H-pyran-4-yl)-6-((R)-4-(5-hydroxy-6-methylpyrimidine-4-carbonyl)-3-methylpiperazin-1-yl)-7-methyl-5-oxo-5,7,8,9-tetrahydropyrrolo[1,2-c][1,2,4]triazolo[1,5-a]pyrimidine-9-carboxamide], for which the GI50 with DLD1-WRN-KO cells and in the experiment on SW48 cells was greater than 10 µM throughout. This molecule also registered an IC50 in experiment [1] of 36 µM.
